Measured values published in patent US9504729B2, “Antiangiogenic small molecules and methods of use” (The United States of America, as represented by the …, priority 2009, dated 2016).

System: angiogenesis genes in dermal microvascular endothelial cells
Assay: Real time RT-PCR of angiogenesis gene expression during endothelial tube formation
Format: cell-based
Conditions: 1 μM SM, 24 hours
Protocol: For gene expression studies, three independent experiments were run for each SM tested. 90.000 cells/well (6 wells/treatment) of dermal microvascular endothelial cells (Lonza, Walkersville, Md.) were seeded on polymerized GELTREX™ gel matrix (Invitrogen, Carlsbad, Calif.) in 24 well plates. Wells were immediately treated with the same volume of 1 μM SM or PBS. After 24 hours incubation at 37° C. and 5% CO2, cells were extracted using Cell Recovery Solution (BD Biosciences, San Jose, Calif., Cat. #354253). Total RNA was extracted with the RNeasy Mini Kit (Qiagen, Valencia, Calif., Cat. #74104), and retrotranscribed using […]® First-Strand reverse transcriptase (Invitrogen, Carlsbad, Calif., Cat. #11904-018). The real time PCR reactions were performed in an Opticon 2 cycler (MJ Research, Waltham, Mass.). Amplification was performed in a final volume of 25 μl, containing 2 μl cDNA (1:10 dilution from the reversed transcribed reaction) and 2 μl of primer mixture (10 μM each of forward and reverse primers). Samples were amplified as follows: after initial denaturation at 95 C for 2 minutes, reactions were run for 46 cycles at 95° C. for 30 seconds, 60° C. for 30 seconds, and 72° C. for 45 seconds. Fluorescence was measured in every cycle and a melting curve was run after the PCR by increasing temperature from 50 to 96° C. (in 0.5° C. increments). A defined single peak was obtained for all amplicons, thus confirming the specificity of the amplification.
The genes that were monitored were selected based on their relevance to the angiogenesis process. All experiments were done in triplicate. The results are shown in the volcano plots of FIG. 17. Log 2 fold-change is presented in the X-axis and log 10 P value in the Y-axis.

O=C1C(=Cc2ccccc2)C(NC2CCCCC2)c2ccccc21 (centres unmarked) [compound 150117]
Log2 fold-change of gene expression: 1839: 0.9 | Log2 fold-change of gene expression: 4247: −0.1 | Log2 fold-change of gene expression: 5569: −0.1 | Log2 fold-change of gene expression: 8131: −0.5 | Log2 fold-change of gene expression: 9569: −4.2 | Log2 fold-change of gene expression: 10988: 0.8 | Log2 fold-change of gene expression: 23001: −1.0 | Log2 fold-change of gene expression: 55332: −1.7 | Log2 fold-change of gene expression: 57722: −0.9 | Log2 fold-change of gene expression: 58488: 0.3 | Log2 fold-change of gene expression: 90780: −1.4 | Log2 fold-change of gene expression: 134265: −1.0 | Log2 fold-change of gene expression: AKT1: 1.6 | Log2 fold-change of gene expression: ANGPT1: 1.7 | Log2 fold-change of gene expression: ANGPT2: −1.2 | Log2 fold-change of gene expression: ANGPTL3: 1.8 | Log2 fold-change of gene expression: ANGPTL4: −4.0 | Log2 fold-change of gene expression: ANPEP: −1.7 | Log2 fold-change of gene expression: ANTXR1: −4.2 | Log2 fold-change of gene expression: APOE: −1.0 | Log2 fold-change of gene expression: ARHGEF1: −2.0 | Log2 fold-change of gene expression: Acvrl1: −1.2 | Log2 fold-change of gene expression: Adcy4: −0.5 | Log2 fold-change of gene expression: BAL1: 0.8 | Log2 fold-change of gene expression: BMP1: −0.4 | Log2 fold-change of gene expression: C1orf54: −1.3 | Log2 fold-change of gene expression: CALD1: 1.1 | Log2 fold-change of gene expression: CCL2: 0.9 | Log2 fold-change of gene expression: CCL11: 0.7 | Log2 fold-change of gene expression: CD248: −0.4 | Log2 fold-change of gene expression: CDH5: −1.6 | Log2 fold-change of gene expression: CENTD3: −0.2 | Log2 fold-change of gene expression: CLIC1: 0.0 | Log2 fold-change of gene expression: COL4A3: 2.4 | Log2 fold-change of gene expression: COL18A1: 0.8 | Log2 fold-change of gene expression: COMT: −1.0 | Log2 fold-change of gene expression: CST4: −0.1 | Log2 fold-change of gene expression: CTTNBP2NL: −2.3 | Log2 fold-change of gene expression: CXCL3: 0.8 | Log2 fold-change of gene expression: CXCL5: −3.5 | Log2 fold-change of gene expression: CXCL6: 1.2 | Log2 fold-change of gene expression: CXCL9: 1.2 | Log2 fold-change of gene expression: CXCL10: −1.7 | Log2 fold-change of gene expression: Calcr1: −5.4 | Log2 fold-change of gene expression: Caskin2: −2.7 | Log2 fold-change of gene expression: Ccbp2: 0.4 | Log2 fold-change of gene expression: Cldn5: 0.1 | Log2 fold-change of gene expression: DGKG: 3.4 | Log2 fold-change of gene expression: DKK3: −3.3 | Log2 fold-change of gene expression: DLL4: 5.5 | Log2 fold-change of gene expression: DUT: −0.2 | Log2 fold-change of gene expression: EFNA1: 0.4 | Log2 fold-change of gene expression: EFNA3: −1.8 | Log2 fold-change of gene expression: EFNB2: 0.4 | Log2 fold-change of gene expression: EGF: −2.3 | Log2 fold-change of gene expression: ENG: −0.1 | Log2 fold-change of gene expression: EPHB4: −1.2 | Log2 fold-change of gene expression: EREG: −2.4 | Log2 fold-change of gene expression: ESAM1: −2.6 | Log2 fold-change of gene expression: EXTL3: 0.0 | Log2 fold-change of gene expression: Egf17: −3.3 | Log2 fold-change of gene expression: Ehd4: −0.6 | Log2 fold-change of gene expression: Entpd1: −8.9 | Log2 fold-change of gene expression: Epas1: 0.4 | Log2 fold-change of gene expression: EphB1: 0.7 | Log2 fold-change of gene expression: Erg: −3.2 | Log2 fold-change of gene expression: FGF1: −3.8 | Log2 fold-change of gene expression: FGF2: 0.0 | Log2 fold-change of gene expression: FGFR3: 1.0 | Log2 fold-change of gene expression: FIGF: 2.4 | Log2 fold-change of gene expression: FLT1: −0.5 | Log2 fold-change of gene expression: Fgd5: −1.2 | Log2 fold-change of gene expression: GPCR124: −2.9 | Log2 fold-change of gene expression: GRRP1: 0.0 | Log2 fold-change of gene expression: Grp116: −3.1 | Log2 fold-change of gene expression: HAND2: 1.5 | Log2 fold-change of gene expression: HGF: 1.5 | Log2 fold-change of gene expression: HIF1A: −1.8 | Log2 fold-change of gene expression: HPSE: −0.2 | Log2 fold-change of gene expression: Hspa12b: −3.5 | Log2 fold-change of gene expression: ID1: 0.3 | Log2 fold-change of gene expression: ID3: 0.5 | Log2 fold-change of gene expression: IFNA1: 1.9 | Log2 fold-change of gene expression: IFNB1: 2.1 | Log2 fold-change of gene expression: IFNG: −1.9 | Log2 fold-change of gene expression: IGF1: −0.2 | Log2 fold-change of gene expression: IL1B: 9.5 | Log2 fold-change of gene expression: IL6: 2.2 | Log2 fold-change of gene expression: IL8: 6.0 | Log2 fold-change of gene expression: ITGAV: −1.8 | Log2 fold-change of gene expression: ITGB3: −1.4 | Log2 fold-change of gene expression: Icam1: 0.6 | Log2 fold-change of gene expression: Icam2: 0.0 | Log2 fold-change of gene expression: JAG1: 0.3 | Log2 fold-change of gene expression: KDR: −2.1 | Log2 fold-change of gene expression: Kifc1: −0.1 | Log2 fold-change of gene expression: LAMAS5: −2.2 | Log2 fold-change of gene expression: LECT1: −0.2 | Log2 fold-change of gene expression: LEP: −0.2 | Log2 fold-change of gene expression: Lasts2: 0.3 | Log2 fold-change of gene expression: Lrrk1: −1.8 | Log2 fold-change of gene expression: MDK: −1.5 | Log2 fold-change of gene expression: MMP2: −0.6 | Log2 fold-change of gene expression: MMP9: −0.3 | Log2 fold-change of gene expression: MMP11: −0.2 | Log2 fold-change of gene expression: MRC2: −0.7 | Log2 fold-change of gene expression: Mmm2: −3.4 | Log2 fold-change of gene expression: Myo1b: −2.7 | Log2 fold-change of gene expression: NID1: −5.2 | Log2 fold-change of gene expression: NM023516: 0.6 | Log2 fold-change of gene expression: NRP1: −2.0 | Log2 fold-change of gene expression: NRP2: −3.2 | Log2 fold-change of gene expression: Notch4: −0.7 | Log2 fold-change of gene expression: Npr3: 0.5 | Log2 fold-change of gene expression: PALD: −1.7 | Log2 fold-change of gene expression: PDCD2: −0.9 | Log2 fold-change of gene expression: PDGFA: −0.9 | Log2 fold-change of gene expression: PECAM1: −2.5 | Log2 fold-change of gene expression: PGF: −1.6 | Log2 fold-change of gene expression: PLAU: 0.0 | Log2 fold-change of gene expression: PLG: −3.9 | Log2 fold-change of gene expression: PNMT: −0.4 | Log2 fold-change of gene expression: PROK2: 0.7 | Log2 fold-change of gene expression: PTGS1: 0.3 | Log2 fold-change of gene expression: PTPRCAP: 0.2 | Log2 fold-change of gene expression: Pltp: 0.9 | Log2 fold-change of gene expression: Ptprb: −2.6 | Log2 fold-change of gene expression: Ptprm: −1.4 | Log2 fold-change of gene expression: RAMP2: −4.4 | Log2 fold-change of gene expression: RASD2: −0.1 | Log2 fold-change of gene expression: Rasip1: −1.7 | Log2 fold-change of gene expression: S1PR1: −1.9 | Log2 fold-change of gene expression: SERPINF1: 1.5 | Log2 fold-change of gene expression: SPHK1: 1.2 | Log2 fold-change of gene expression: STAB1: −0.9 | Log2 fold-change of gene expression: Sdc4: 0.2 | Log2 fold-change of gene expression: Sdpr: 0.0 | Log2 fold-change of gene expression: Slc43a3: 0.0 | Log2 fold-change of gene expression: Slco2a1: −2.9 | Log2 fold-change of gene expression: TEK: 0.7 | Log2 fold-change of gene expression: TGFA: 5.3 | Log2 fold-change of gene expression: TGFB1: −1.3 | Log2 fold-change of gene expression: TGFB2: 1.6 | Log2 fold-change of gene expression: TGFBR1: 1.2 | Log2 fold-change of gene expression: THBS1: −0.6 | Log2 fold-change of gene expression: THBS2: 0.9 | Log2 fold-change of gene expression: THY1: −12.7 | Log2 fold-change of gene expression: TIMP1: −0.7 | Log2 fold-change of gene expression: TIMP2: −0.8 | Log2 fold-change of gene expression: TIMP3: −2.7 | Log2 fold-change of gene expression: TNF: 2.4 | Log2 fold-change of gene expression: TNS1: −0.9 | Log2 fold-change of gene expression: TNS3: 0.6 | Log2 fold-change of gene expression: TRA2B: −0.2 | Log2 fold-change of gene expression: TYMP: −1.1 | Log2 fold-change of gene expression: VEGFA: −0.3 | Log2 fold-change of gene expression: VEGFC: 2.0 | Log2 fold-change of gene expression: VGLL4: −3.5 | Log2 fold-change of gene expression: Vwf: −3.7 | Log2 fold-change of gene expression: copa: 0.0 | Log2 fold-change of gene expression: itbp4: −2.5 | Log2 fold-change of gene expression: ralb: −0.7 | Log2 fold-change of gene expression: stard9: 0.1 | Log2 fold-change of gene expression: B2M (1st listing (r49)): 2.8 | Log2 fold-change of gene expression: HPRT1 (1st listing (r50)): −0.4 | Log2 fold-change of gene expression: RPL13A (1st listing (r51)): −0.8 | Log2 fold-change of gene expression: GADPH (1st listing (r52)): −1.3 | Log2 fold-change of gene expression: ACTB (1st listing (r53)): −0.9 | Log2 fold-change of gene expression: PLXDC1 (1st listing (r74)): −3.2 | Log2 fold-change of gene expression: TNFAIP2 (1st listing (r91)): −0.6 | Log2 fold-change of gene expression: Robo4 (1st listing (r95)): −0.2 | Log2 fold-change of gene expression: 151516 (1st listing (r134)): 0.0 | Log2 fold-change of gene expression: TNFAIP2 (2nd listing (r92)): 2.7 | Log2 fold-change of gene expression: B2M (2nd listing (r97)): −1.2 | Log2 fold-change of gene expression: HPRT1 (2nd listing (r98)): 0.6 | Log2 fold-change of gene expression: RPL13A (2nd listing (r99)): 0.1 | Log2 fold-change of gene expression: GADPH (2nd listing (r100)): −0.1 | Log2 fold-change of gene expression: ACTB (2nd listing (r101)): −0.6 | Log2 fold-change of gene expression: PLXDC1 (2nd listing (r104)): −0.6 | Log2 fold-change of gene expression: 151516 (2nd listing (r139)): 0.0 | Log2 fold-change of gene expression: Robo4 (2nd listing (r188)): −0.3 | Log2 fold-change of gene expression: B2M (3rd listing (r145)): −0.7 | Log2 fold-change of gene expression: HPRT1 (3rd listing (r146)): 1.1 | Log2 fold-change of gene expression: RPL13A (3rd listing (r147)): 0.6 | Log2 fold-change of gene expression: GADPH (3rd listing (r148)): −0.5 | Log2 fold-change of gene expression: ACTB (3rd listing (r149)): −0.5 | Log2 fold-change of gene expression: B2M (4th listing (r193)): −0.8 | Log2 fold-change of gene expression: HPRT1 (4th listing (r194)): 0.4 | Log2 fold-change of gene expression: RPL13A (4th listing (r195)): 0.2 | Log2 fold-change of gene expression: GADPH (4th listing (r196)): −0.5 | Log2 fold-change of gene expression: ACTB (4th listing (r197)): −0.2
